Data from patent publication US20260008775A1, “AZOLE MODULATORS OF CHOLESTEROL BIOSYNTHESIS AND THEIR USE FOR PROMOTING REMYELINATION” (GENENTECH, INC., priority 2022, published 2026).

Assays:
[1] = tested on: zymostenol accumulation (EBP) in EpiSC-derived OPCs; assay: GC/MS-based sterol profiling, zymostenol accumulation in EpiSC-derived OPCs; assay type: cell-based, mouse; details: for EC50: Mus musculus, 24 h, EpiSC-derived OPCs, 24 hr, 8 doses from 0.15 nM to 333 nM, read-out: Mouse Zymostenol GCMS EC50
Method in brief: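 Zymostenol level is expressed relative to that after 24 h with 100 nM positive-control reference, measured by full-scan GC/MS (m/z 458) with cholesterol-d7 internal standard after BSTFA derivatisation. Cells were EpiSC-derived OPCs, 100,000/well in N2B27 without growth factors, treated 24 h, from two or more independent platings.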

[2] = biological target: human emopamil binding protein and human 7-dehydrocholesterol reductase (hEBP-DHCR7) (Homo sapiens (Human), UniProt Q15125); assay: hEBP-DHCR7 radioligand binding assay (filter binding, membranes of co-expressing HEK293 cells); details: for Ki: competition with [3H] radioligand, 8 doses 0.06 to 5000 nM, Ki calculated from IC50
human emopamil binding protein and human 7-dehydrocholesterol reductase (hEBP-DHCR7), sequence (Q15125 whole entry): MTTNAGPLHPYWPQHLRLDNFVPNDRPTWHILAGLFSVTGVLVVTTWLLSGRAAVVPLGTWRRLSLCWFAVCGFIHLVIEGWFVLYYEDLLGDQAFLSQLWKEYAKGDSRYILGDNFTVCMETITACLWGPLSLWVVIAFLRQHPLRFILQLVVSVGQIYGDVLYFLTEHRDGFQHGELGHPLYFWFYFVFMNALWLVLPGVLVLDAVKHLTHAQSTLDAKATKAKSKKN
Method in brief: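 Compound, either single dose 1 μM or eight 5-fold dilutions from 0.06 to 5000 nM, competed with a [3H]-labelled ligand added at 25 nM for binding to co-expressing HEK293 membranes. IC50 came from nonlinear regression, with full block and DMSO as controls, then Cheng–Prusoff conversion to Ki.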

EpiSC-derived OPCs = assay: In vitro phenotypic screening of OPCs, MBP high-content imaging (percentage of oligodendrocytes); assay type: cell-based, mouse; details: for EC50: Mus musculus, 72 h, 3 days, MBP stain, dose-response 0.5 nM to 1000 nM, read-out: OPC EC50
Method in brief: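 EC50 was fitted by Hill equation to the MBP-positive oligodendrocyte percentage from imaging of fixed, MBP- and DAPI-stained cells. Treatment lasted 3 days at 37 °C, final doses 0.5–1000 nM over 8 points, in growth factor-free N2B27. Cells were EpiSC-derived OPCs, tested in at least two independent platings.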

Row | Structure (SMILES) | EC50 [1] | Ki [2] | EC50 (EpiSC-derived OPCs) | fold decrease in activity in the mouse zymostenol assay ([1]; as compared to compound 202) | fold decrease in EBP inhibition ([2]; as compared to compound 202 (no amine group on Ring B)) | fold decrease in activity in the OPC assay (EpiSC-derived OPCs; as compared to compound 202)
1 | CC(C)n1nc(-c2cnc(C(F)(F)F)nc2)nc1[C@H]1[C@@H]2C[C@H](N3CCOC[C@H]3C)C[C@@H]21 [Compound 204, (R)-4-((1R,3r,5S,6r)-6-(1-isopropyl-3-(2-(trifluoromethyl)pyrimidin-5-yl)-1H-1,2,4-triazol-5-yl)bicyclo[3.1.0]hexan-3-yl)-3-methylmorpholine] | 2.07 nM | 16 nM | 6 nM |  |  | 
2 | CC(C)n1nc(-c2cnc(N)c(C(F)(F)F)c2)cc1[C@H]1[C@@H]2C[C@@H](N3CCOCC3)C[C@@H]21 [Compound A, reference compound] | 1400 nM | 3670 nM | 3000 nM | 5.9 fold | 19.5 fold | 4.1 fold
